Key:
Type in all cases: biochemical
μ-opioid receptor [1] = target: T1, μ-opioid receptor (Homo sapiens (Human), UniProt P35372); test: μ-opioid receptor [35S]GTPγS functional assay, HEK-293 or CHO cells (Table 4); conditions: for Emax: relative to DAMGO; for EC50: μ GTP
Protocol: (§1) μ-Opioid Receptor Functional Assay Procedures: [^35S]GTPγS functional assays were conducted using freshly thawed μ-receptor membranes prepared in-house from a cell line expressing recombinant μ opioid receptor in a HEK-293, CHO or U-2 OS cell background, or purchased from a commercial source (Perkin Elmer, Shelton, Conn.; or DiscovRx, Fremont, Calif.). Assay reactions were prepared by sequentially adding the following reagents to binding buffer (100 mM NaCl, 10 mM MgCl2, 20 mM HEPES, pH 7.4) on ice (final concentrations indicated): membrane protein (0.026 mg/mL), saponin ([…]), GDP ([…]) and [^35S]GTPγS (0.20 nM; Perkin Elmer, Shelton, Conn.). The prepared membrane solution (190 μl/well) was transferred to 96-shallow well polypropylene plates containing 10 μl of 20× concentrated stock solutions of the agonist [D-Ala^2, N-methyl-Phe^4 Gly-ol^5]-enkephalin (DAMGO) prepared in dimethyl sulfoxide (DMSO). Plates were incubated for 30 min at about 25° C. with shaking Reactions were terminated by rapid filtration onto 96-well Unifilter GF/B filter plates (Perkin Elmer, Shelton, Conn.) using a 96-well tissue harvester (Perkin Elmer, Shelton, Conn.) followed by three filtration washes with 200 μl of ice-cold wash buffer (10 mM NaH2PO4, 10 mM Na2HPO4, pH 7.4). Filter plates were subsequently dried at 50° C. for 2-3 hours. BetaScint scintillation cocktail (Perkin Elmer, Shelton, Conn.) was added (50 μl/well) and plates were counted using a Packard Top-Count for 1 min/well. Data were analyzed using the sigmoidal dose-response curve fitting functions in GraphPad PRISM v. 3.0, or an in-house function for non-linear, sigmoidal dose-response curve-fitting. [^35S]GTPγS functional assays can also be conducted using freshly thawed μ-receptor membranes prepared from a cell line expressing recombinant μ opioid receptor in a CHO-K1 cell background.
(§2) μ GTP Emax (%) is the maximal effect elicited by a compound relative to the effect elicited by DAMGO, a standard μ agonist.
In TABLE 4, activity response of certain Compounds of the Invention to the μ- and κ-opioid receptors was determined as described above for functional assays using HEK-293 or CHO cells.

μ-opioid receptor [2] = target: T1, μ-opioid receptor; test: μ-opioid receptor [35S]GTPγS functional assay, U-2 OS cells (Table 5); conditions: for Emax: relative to DAMGO; for EC50: μ GTP
Protocol: as §1, §2

κ-opioid receptor = κ-opioid receptor (Homo sapiens (Human), UniProt P41145); test: κ-opioid receptor [35S]GTPγS functional assay, U-2 OS cells (Table 5); conditions: for Emax: relative to U69,593; for EC50: κ GTP
Protocol: κ-Opioid Receptor Functional Assay Procedures: Functional [^35S]GTPγS binding assays were conducted as follows. κ opioid receptor membrane solution was prepared by sequentially adding final concentrations of 0.026 μg/μl κ membrane protein (in-house), 10 μg/mL saponin, 3 μM GDP and 0.20 nM [^35S]GTPγS to binding buffer (100 mM NaCl, 10 mM MgCl2, 20 mM HEPES, pH 7.4) on ice. The prepared membrane solution (190 μl/well) was transferred to 96-shallow well polypropylene plates containing 10 μl of 20× concentrated stock solutions of agonist prepared in DMSO. Plates were incubated for 30 min at a temperature of about 25° C. with shaking. Reactions were terminated by rapid filtration onto 96-well Unifilter GF/B filter plates (Perkin Elmer, Shelton, Conn.) using a 96-well tissue harvester (Packard) and followed by three filtration washes with 200 μl ice-cold binding buffer (10 mM NaH2PO4, 10 mM Na2HPO4, pH 7.4). Filter plates were subsequently dried at 50° C. for 2-3 hours. Fifty μl/well scintillation cocktail (Perkin Elmer, Shelton, Conn.) was added and plates were counted in a Packard Top-Count for 1 min/well.
κ GTP Emax (%) is the maximal effect elicited by a compound relative to the effect elicited by U69,593.
The following TABLE 5 provides results on the activity response of certain Compounds of the Invention at the μ- and κ-opioid receptors determined as described above using U-2 OS cells.

| SMILES | Emax (μ-opioid receptor [1]) [%] | EC50 (μ-opioid receptor [1]; bound given in μM) [µM] | Emax (μ-opioid receptor [2]) [%] | EC50 (μ-opioid receptor [2]) [µM] | Emax (κ-opioid receptor) [%] | EC50 (κ-opioid receptor) [nM] | EC50 (μ-opioid receptor [1]) [µM] | EC50 (μ-opioid receptor [2]; bound given in μM) [µM] |
| --- | --- | --- | --- | --- | --- | --- | --- | --- |
| O=C(N[C@@H]1CC23CCN(CC4CC4)[C@H](Cc4ccc(O)cc42)[C@]3(O)C1)c1ccccc1 (stereo in doubt) [Compound 82, N-((2R,3aS,4R,9bS)-12-(cyclopropyl-methyl)-3a,8-dihydroxy-1,2,3,3a,4,5-hexahydro-4,9b-(epiminoethano)cyclo-penta[a]naphthalen-2-yl)benzamide] | 1 | > 20 | – | – | – | – | – | – |
| O=C([C@@H]1C[C@]23CCN(CC4CC4)[C@H](Cc4ccc(O)cc42)[C@]3(O)C1)N1CCSCC1 [Compound 87, ((2R,3aS,4R,9bS)-12-(cyclopropylmethyl)-3a,8-dihydroxy-1,2,3,3a,4,5-hexahydro-4,9b-(epiminoethano)cyclopenta-[a]naphthalen-2-yl)(thiomorpholino)-methanone] | 1 | > 20 | – | – | – | – | – | – |
| O=C(N[C@H]1CC23CCN(CC4CC4)[C@H](Cc4ccc(O)cc42)[C@]3(O)C1)c1ccccc1 (stereo in doubt) [Compound 79, N-((2S,3aS,4R,9bS)-12-(cyclopropyl-methyl)-3a,8-dihydroxy-1,2,3,3a,4,5-hexahydro-4,9b-(epiminoethano)cyclo-penta[a]naphthalen-2-yl)benzamide] | -1 | > 20 | – | – | – | – | – | – |
| CN(CC(=O)O)C(=O)[C@@H]1C[C@]23CCN(CC4CC4)[C@H](Cc4ccc(O)cc42)[C@]3(O)C1 [Compound 66, 2-((2R,3aS,4R,9bS)-12-(cyclopropyl-methyl)-3a,8-dihydroxy-N-methyl-1,2,3,3a,4,5-hexahydro-4,9b-(epiminoethano)cyclopenta[a]naphthalene-2-carboxamido)acetic acid] | – | – | 15.5 ± 1.5 | 0.029 ± 0.00429 | 77.3 ± 0.88 | 168 ± 8.15 | – | – |
| CCN(CC)C(=O)[C@@H]1C[C@]23CCN(CC4CC4)[C@H](Cc4ccc(O)cc42)[C@]3(O)C1 [Compound 59, (2R,3aS,4R,9bS)-12-(cyclopropylmethyl)-N,N-diethyl-3a,8-dihydroxy-1,2,3,3a,4,5-hexahydro-4,9b-(epiminoethano)cyclo-penta[a]naphthalene-2-carboxamide] | – | – | 25.7 ± 0.33 | 0.0226 ± 0.00631 | 105 ± 4.33 | 26 ± 2.61 | – | – |
| O=C([C@@H]1C[C@]23CCN(CC4CC4)[C@H](Cc4ccc(O)cc42)[C@]3(O)C1)N1CCN(c2ccccc2)CC1 [Compound 86, ((2R,3aS,4R,9bS)-12-(cyclopropylmethyl)-3a,8-dihydroxy-1,2,3,3a,4,5-hexahydro-4,9b-(epiminoethano)cyclopenta-[a]naphthalen-2-yl)(4-phenylpiperazin-1-yl)methanone] | 12.8 ± 0.63 | – | – | – | – | – | 0.0288 ± 0.0105 | – |
| NC(=O)[C@H]1C[C@]23CCN(CC(F)(F)F)[C@H](Cc4ccc(O)cc42)[C@]3(O)C1 [Compound 76, (2S,3aS,4R,9bS)-3a,8-dihydroxy-12-(2,2,2-trifluoroethyl)-1,2,3,3a,4,5-hexahydro-4,9b-(epiminoethano)cyclo-penta[a]naphthalene-2-carboxamide] | – | – | 2 | – | 81 ± 6.66 | 923 ± 31.9 | – | > 20 |
| N[C@H]1CC23CCN(CC4CC4)[C@H](Cc4ccc(O)cc42)[C@]3(O)C1 (stereo in doubt) [Compound 29, (2S,3aS,4R,9bS)-2-amino-12-(cyclopropylmethyl)-1,2,3,3a,4,5-hexahydro-4,9b-(epiminoethano)-cyclopenta[a]naphthalene-3a,8-diol] | – | – | 22 ± 1.73 | 0.00778 ± 0.00163 | 107 ± 3.18 | 0.62 ± 0.04 | – | – |
| COc1ccc2c(c1)[C@]13CCN(CC4CC4)[C@H](C2)[C@]1(O)C[C@@H](C(=O)N1CCCC1)C3 [Compound 20, ((2S,3aS,4R,9bS)-12-(cyclopropylmethyl)-3a-hydroxy-8-methoxy-1,2,3,3a,4,5-hexahydro-4,9b-(epiminoethano)cyclo-penta[a]naphthalene-2-yl)(pyrrolidin-1-yl)methanone] | – | – | 43.3 ± 2.4 | 1.23 ± 0.0835 | 87.7 ± 4.33 | 4400 ± 357 | – | – |
| O=C([C@H]1C[C@]23CCN(CC4CC4)[C@H](Cc4ccc(O)cc42)[C@]3(O)C1)N1CCCCC1 [Compound 57, ((2S,3aS,4R,9bS)-12-(cyclopropylmethyl)-3a,8-dihydroxy-1,2,3,3a,4,5-hexahydro-4,9b-(epiminoethano)cyclopenta-[a]naphthalen-2-yl)(piperidin-1-yl)methanone] | – | – | 37.7 ± 6.69 | 0.00279 ± 0.00076 | 90.3 ± 2.6 | 5.88 ± 0.79 | – | – |
| O=C(NCc1ccc(Cl)cc1Cl)[C@@H]1C[C@]23CCN(CC4CC4)[C@H](Cc4ccc(O)cc42)[C@]3(O)C1 [Compound 44, (2R,3aS,4R,9bS)-12-(cyclopropylmethyl)-N-(2,4-dichlorobenzyl)-3a,8-dihydroxy-1,2,3,3a,4,5-hexahydro-4,9b-(epimino-ethano)cyclopenta[a]naphthalene-2-carboxamide] | – | – | 28.3 ± 1.86 | 0.00375 ± 0.00035 | 94.7 ± 7.13 | 0.26 ± 0.033 | – | – |
| O=C([C@@H]1C[C@]23CCN(CC4CC4)[C@H](Cc4ccc(O)cc42)[C@]3(O)C1)N1CCCCC1 [Compound 56, ((2R,3aS,4R,9bS)-12-(cyclopropylmethyl)-3a,8-dihydroxy-1,2,3,3a,4,5-hexahydro-4,9b-(epiminoethano)cyclopenta-[a]naphthalen-2-yl)(piperidin-1-yl)methanone] | – | – | 16 ± 1.53 | 0.0104 ± 0.00203 | 97.8 ± 3.67 | 20.8 ± 1.79 | – | – |
| O=C([C@@H]1C[C@]23CCN(CC4CC4)[C@H](Cc4ccc(O)cc42)[C@]3(O)C1)N1CCOCC1 [Compound 58, ((2R,3aS,4R,9bS)-12-(cyclopropylmethyl)-3a,8-dihydroxy-1,2,3,3a,4,5-hexahydro-4,9b-(epiminoethano)cyclopenta-[a]naphthalen-2-yl)(morpholino)-methanone] | – | – | 21.7 ± 5.49 | 0.0143 ± 0.00543 | 93.7 ± 4.48 | 24.3 ± 5.67 | – | – |
| COc1ccc2c(c1)[C@]13CCN(CC4CC4)[C@H](C2)[C@]1(O)C[C@H](N)C3 [Compound 21, (2R,3aS,4R,9bS)-2-amino-12-(cyclopropylmethyl)-8-methoxy-1,2,3,3a,4,5-hexahydro-4,9b-(epimino-ethano)cyclopenta[a]naphthalene-3a-ol] | – | – | 8.67 ± 1.76 | – | 90 ± 2.08 | 5590 ± 738 | – | > 20 |
| COc1ccc2c(c1)[C@]13CCN(CC4CC4)[C@H](C2)[C@]1(O)C[C@H](C(=O)O)C3 [Compound 14, (2R,3aS,4R,9bS)-12-(cyclopropylmethyl)-3a-hydroxy-8-methoxy-1,2,3,3a,4,5-hexahydro-4,9b-(epiminoethano)-cyclopenta[a]naphthalene-2-carboxylic acid] | – | – | 26.7 ± 2.4 | 0.126 ± 0.0377 | 100 ± 2.52 | 147 ± 11.6 | – | – |
| COc1ccc2c(c1)[C@]13CCN(CC4CC4)[C@H](C2)[C@]1(O)C[C@H](C(=O)N1CCCC1)C3 [Compound 19, ((2R,3aS,4R,9bS)-12-(cyclopropylmethyl)-3a-hydroxy-8-methoxy-1,2,3,3a,4,5-hexahydro-4,9b-(epiminoethano)cyclo-penta[a]naphthalene-2-yl)(pyrrolidin-1-yl)methanone] | – | – | 29.3 ± 5.93 | 2.96 ± 0.864 | 97.7 ± 0.67 | 4720 ± 150 | – | – |
| O=C(NCCc1ccccc1)[C@@H]1C[C@]23CCN(CC4CC4)[C@H](Cc4ccc(O)cc42)[C@]3(O)C1 [Compound 50, (2R,3aS,4R,9bS)-12-(cyclopropylmethyl)-3a,8-dihydroxy-N-phenethyl-1,2,3,3a,4,5-hexahydro-4,9b-(epiminoethano)-cyclopenta[a]naphthalene-2-carboxamide] | – | – | 23.3 ± 1.86 | 0.0069 ± 0.00054 | 107.7 ± 0.88 | 1.95 ± 0.33 | – | – |

Reference: patent US9656962B2, “Ring-contracted morphinans and the use thereof” (Purdue Pharma L.P., priority 2013, dated 2017)
